Reference: the RepoRT retention time repository (doi:10.1016/j.aca.2011.01.006)

Assay: Waters SunFire C18, 150 × 2.1 mm, 3.5 µm, 35 °C, 0.3 mL/min, estimated dead time 1.1 min; A: water + 0.1% formic acid; B: acetonitrile + 0.1% formic acid; gradient (min/%B) 0/20 5/20 20/50 25/100
Conditions: stereoisomer not certain

Row | LC retention time | Structure (SMILES)
1 | 4.3 min | CCC1(c2ccccc2)C(=O)NCNC1=O
2 | 2 min | Cn1c(=O)c2c(ncn2CCO)n(C)c1=O
3 | 16.5 min | CC1(C)OC2CC3C4CCC5=CC(=O)C=CC5(C)C4C(O)CC3(C)C2(C(=O)CO)O1 (configuration not stated)
4 | 9.9 min | CN(C)CCCOc1nn(Cc2ccccc2)c2ccccc12
5 | 21.3 min | CCCN(CCC)S(=O)(=O)c1ccc(C(=O)O)cc1
6 | 16.8 min | CS(=O)(=O)c1ccc(C2=C(c3ccccc3)C(=O)OC2)cc1
7 | 6.4 min | COc1ccccc1OCC(O)COC(N)=O (configuration not stated)
8 | 8.8 min | CN(C)CCCN1c2ccccc2Sc2ccccc21
9 | 15.1 min | COC(=O)C1CC2=CC(=O)CCC2(C)C23OC2CC2(C)C(CCC24CCC(=O)O4)C13 (configuration not stated)
10 | 20.4 min | CC1(C)OC(=O)C(OCC2CC2)=C1c1ccc(S(C)(=O)=O)cc1
11 | 5.4 min | CC(=O)CCCCn1c(=O)c2c(ncn2C)n(C)c1=O
12 | 5.1 min | CN(C)CCOC(c1ccccc1)c1ccccc1
13 | 15.1 min | CC1CC2C3CCC4=CC(=O)C=CC4(C)C3C(=O)CC2(C)C1(O)C(=O)CO (configuration not stated)
14 | 1.4 min | CC(C)[N+]1(C)C2CCC1CC(OC(=O)C(CO)c1ccccc1)C2 (configuration not stated)
15 | 10 min | CCN(CC)CCOCCOC(=O)C1(c2ccccc2)CCCC1
16 | 2.7 min | COc1ccc2nc(S(=O)Cc3ncc(CO)c(OC)c3C)[nH]c2c1 (configuration not stated)
17 | 2.2 min | C[N+]1(CCC(O)(c2ccccc2)c2cccs2)CCOCC1 (configuration not stated)
18 | 24 min | CCCCC1C(=O)N(c2ccccc2)N(c2ccccc2)C1=O
19 | 20.1 min | CCCC1OC2CC3C4CCC5=CC(=O)C=CC5(C)C4C(O)CC3(C)C2(C(=O)CO)O1 (configuration not stated)
20 | 12.3 min | CCOC(=O)c1ccc(N)cc1
21 | 15.2 min | O=C1NC(=O)N(N=Cc2ccc(-c3ccc([N+](=O)[O-])cc3)o2)C1O (configuration not stated)
22 | 2.9 min | CCCCN1CCCCC1C(=O)Nc1c(C)cccc1C (configuration not stated)
23 | 2 min | COc1cc(OC)c(C(=O)CCCN2CCCC2)c(OC)c1
24 | 4.9 min | CCCCNc1ccc(C(=O)OCCN(C)C)cc1
25 | 12.6 min | CC12CCC(=O)C=C1CCC1C2C(O)CC2(C)C1CCC2(O)C(=O)CO (configuration not stated)
26 | 15.8 min | CN1C(C(=O)Nc2ccc(O)cn2)=C(O)c2ccccc2S1(=O)=O
27 | 24 min | CC(C)(C)C(=O)SCC(=O)C1(O)CCC2C3CCC4=CC(=O)CCC4(C)C3C(O)CC21C (configuration not stated)

Row | LC retention time | Structure (SMILES)
28 | 19.3 min | CC(C(=O)O)c1cccc(C(=O)c2ccccc2)c1 (configuration not stated)
29 | 5 min | COc1ccccc1OCC(O)CO (configuration not stated)
30 | 3.4 min | CCCc1nc(C)c2c(=O)[nH]c(-c3cc(S(=O)(=O)N4CCN(CC)CC4)ccc3OCC)nn12
31 | 15.5 min | O=C1CN(N=Cc2ccc(-c3ccc([N+](=O)[O-])cc3)o2)C(=O)N1
32 | 9.6 min | CN(C)CCCN1c2ccccc2CCc2ccccc21
33 | 3 min | CCC1(c2cnc[nH]2)Cc2ccccc2C1
34 | 3.5 min | CC(=O)N=c1sc(S(N)(=O)=O)nn1C
35 | 11.1 min | CCN(CC)CCOC(=O)C(Cc1cccc2ccccc12)CC1CCCO1 (configuration not stated)
36 | 14.6 min | CC1CC2C(C(O)CC3(C)C2CCC3(O)C(=O)CO)C2(C)C=CC(=O)C=C12 (configuration not stated)
37 | 20.7 min | CCCCNc1cc(C(=O)O)cc(S(N)(=O)=O)c1Oc1ccccc1
38 | 9 min | CN1C(C(=O)Nc2ccccn2)=C(O)c2sccc2S1(=O)=O
39 | 8.7 min | CC(=O)c1ccc2c(c1)N(CCCN(C)C)c1ccccc1S2
40 | 19.8 min | CCCCC1C(=O)N(c2ccccc2)N(c2ccc(O)cc2)C1=O (configuration not stated)
41 | 22 min | CC(=O)SC1CC2=CC(=O)CCC2(C)C2CCC3(C)C(CCC34CCC(=O)O4)C12 (configuration not stated)
42 | 21.9 min | CS(=O)(=O)Nc1ccc([N+](=O)[O-])cc1Oc1ccccc1
43 | 4.2 min | COc1ccc2nc(S(=O)Cc3ncc(C)c(OC)c3C)[nH]c2c1 (configuration not stated)
44 | 21.8 min | CCC(=O)NS(=O)(=O)c1ccc(-c2c(-c3ccccc3)noc2C)cc1
45 | 12.3 min | CC12C=CC(=O)C=C1CCC1C2C(O)CC2(C)C1CCC2(O)C(=O)CO (configuration not stated)
46 | 1.8 min | CCN(CC)CC(=O)Nc1c(C)cccc1C
47 | 1.9 min | CN(C)CCN(Cc1ccccc1)c1ccccn1
48 | 2 min | Cn1cnc2c1c(=O)[nH]c(=O)n2C
49 | 10.6 min | COc1ccc(CCN(C)CCCC(C#N)(c2ccc(OC)c(OC)c2)C(C)C)cc1OC (configuration not stated)
50 | 15.2 min | CN1C(C(=O)Nc2ccccn2)=C(O)c2ccccc2S1(=O)=O
51 | 9.6 min | CC[N+]1(CC)CCC(=C(c2ccccc2)c2ccccc2)C1C (configuration not stated)
52 | 1.9 min | Cn1c(=O)c2c(ncn2CC(O)CO)n(C)c1=O (configuration not stated)
53 | 2.4 min | CCN(CC)C(=O)c1cccnc1
54 | 22 min | CC12CCC(=O)C=C1C=CC1C2CCC2(C)C1CCC21CCC(=O)O1 (configuration not stated)

Row | LC retention time | Structure (SMILES)
55 | 4.2 min | CCCCOc1cc(C(=O)OCCN(CC)CC)ccc1N
56 | 2.42 min | Cn1c(=O)c2c(ncn2CC(=O)O)n(C)c1=O
57 | 12.1 min | CCCn1cnc2c1c(=O)n(CCCCC(C)=O)c(=O)n2C
58 | 8.5 min | Cc1cccc(Nc2ccncc2S(=O)(=O)NC(=O)NC(C)C)c1
59 | 2.4 min | Cn1c(=O)c2c(ncn2C)n(C)c1=O
60 | 12.4 min | CC12C=CC(=O)C=C1CCC1C2C(=O)CC2(C)C1CCC2(O)C(=O)CO (configuration not stated)
61 | 10.3 min | CN(C)CCC=C1c2ccccc2CCc2ccccc21
62 | 4.1 min | Cc1cc(=O)n(-c2ccccc2)n1C
63 | 1.7 min | CN1CC(O)c2cc(N=NC(N)=O)c(O)cc21 (configuration not stated)
64 | 2.6 min | Cc1c(NC=O)c(=O)n(-c2ccccc2)n1C
65 | 1.9 min | Cn1c(=O)c2[nH]cnc2n(C)c1=O
66 | 8.2 min | CCCc1nn(C)c2c(=O)[nH]c(-c3cc(S(=O)(=O)N4CCN(C)CC4)ccc3OCC)nc12
67 | 22.6 min | COc1cc(CNC(=O)CCCCC=CC(C)C)ccc1O
68 | 2 min | COc1ccc(CN(CCN(C)C)c2ccccn2)cc1
69 | 1.8 min | Cc1cccc(C)c1NC(=O)C1CCCCN1C (configuration not stated)
70 | 14.7 min | O=C1NC(=O)C(c2ccccc2)(c2ccccc2)N1
71 | 21.4 min | Cc1cc(NC(=O)C2=C(O)c3ccccc3S(=O)(=O)N2C)no1
72 | 9.8 min | CC(C)[N+](C)(CCOC(=O)C1c2ccccc2Oc2ccccc21)C(C)C
73 | 9 min | CC[N+](C)(CC)CCOC(=O)C(O)(c1ccccc1)C1CCCCC1 (configuration not stated)
74 | 2.3 min | CC(=O)Nc1nnc(S(N)(=O)=O)s1
75 | 16.3 min | O=C(c1ccccc1)c1ccc2n1CCC2C(=O)O (configuration not stated)
76 | 18.5 min | Cc1onc(-c2ccccc2)c1-c1ccc(S(N)(=O)=O)cc1
77 | 1.8 min | CC(C)(C)NCC(O)COc1nsnc1N1CCOCC1 (configuration not stated)
78 | 2.9 min | Nc1nc(N)c2nc(-c3ccccc3)c(N)nc2n1
79 | 17.4 min | CN1CC(=O)N2C(Cc3c([nH]c4ccccc34)C2c2ccc3c(c2)OCO3)C1=O (configuration not stated)
80 | 2.9 min | CN1CCOC(c2ccccc2)c2ccccc2C1 (configuration not stated)

Row | Structure (SMILES) | LC retention time
81 | CN1C2CCC1C(C(=O)O)C(OC(=O)c1ccccc1)C2 (configuration not stated) | 2.6 min
82 | C=CCC1(O)CCC2C3CCC4=CC(=O)CCC4=C3C=CC21C (configuration not stated) | 22.1 min
83 | CCCCCCCCC(=O)NCc1ccc(O)c(OC)c1 | 22.4 min
84 | C[N+]12CCC(CC1)C(OC(=O)C(O)(c1ccccc1)c1ccccc1)C2 (configuration not stated) | 3.4 min
85 | C[N+]1(C)CCCC(OC(=O)C(O)(c2ccccc2)c2ccccc2)C1 (configuration not stated) | 3 min
86 | N=C1NC(=O)C(c2ccccc2)O1 (configuration not stated) | 3.4 min
87 | CCOC(=O)C1(c2ccccc2)CCN(C)CC1 | 2.2 min
88 | CC12CCC(=O)C=C1C=CC1C2CCC2(C)C1CCC2(O)CCC(=O)O (configuration not stated) | 16.1 min
89 | Oc1ccc2c(c1)C13CCCCC1(O)C(C2)N(CC1CCC1)CC3 (configuration not stated) | 2.5 min
90 | CC(C)c1c(CN(C)C(C)Cc2ccccc2)n(C)n(-c2ccccc2)c1=O (configuration not stated) | 10.8 min
91 | CCN(CCO)CCn1c(Cc2ccccc2)nc2c1c(=O)n(C)c(=O)n2C | 1.5 min
92 | CCC1(c2ccccc2)C(=O)NC(=O)NC1=O | 4.9 min
93 | COC(=O)C(c1ccccc1)C1CCCCN1 (configuration not stated) | 1.8 min
94 | CCCC(Cc1ccccc1)N1CCCC1 (configuration not stated) | 2.9 min
95 | CCC1(O)CCC2C3CCC4=CC(=O)CCC4=C3C=CC21CC (configuration not stated) | 22.9 min
96 | COc1cccc(C2(O)CCCCC2CN(C)C)c1 (configuration not stated) | 1.9 min
97 | CC[N+]1(C)CCCC(OC(=O)C(O)(c2ccccc2)c2ccccc2)C1 (configuration not stated) | 3.4 min
98 | Cc1cccc(C(C)c2cnc[nH]2)c1C (configuration not stated) | 2.8 min
99 | CC(C)[N+](C)(CCC(C(N)=O)(c1ccccc1)c1ccccc1)C(C)C | 3.4 min
100 | CCCC[N+]1(C)C2CC(OC(=O)C(CO)c3ccccc3)CC1C1OC12 (configuration not stated) | 2.3 min
101 | CCCCCc1cc(O)c2c(c1)OC(C)(C)C1CCC(C(=O)O)=CC21 (configuration not stated) | 25.1 min
102 | Cc1cccc(C)c1NC1=NCCCS1 | 1.8 min
